Results: patent US9561228B2 (Celgene Avilomics Research, Inc., priority 2013, dated 2017)

Tests used:
[1] = system: A375 cells (malignant melanoma); assay: Inhibition of cancer cell proliferation, A375 (CellTiterGlo, 72 hours); type: cell-based; conditions: Homo sapiens, A-375
Description: Measurement of Inhibition of Cancer Cell Proliferation (A375/Malignant Melanoma)
(§1) The following protocol used an A375 cell line, which cell line is a model for malignant melanoma. A375 cells were split and 3000 cells in 100 n1 of growth medium were added per well of a flat-bottom 96-well plate. A two-fold test compound solution in serum-free DMEM was made, starting at 5,000 nM. Then, 3-fold serial dilutions were made across the plate from well 1 to well 11. Well 12, the last well in a row on the plate, was left as untreated control. 100 μl compound solutions were then transferred to the wells, so the total volume of media was 200 μl per well. Plates were returned to a 37° C. incubator, and the cells were cultured for 72 hours. To measure cell proliferation after 72 hours, media was discarded from the plates, 50 μl/well of fresh medium was added, and 50 μl CellTiterGlo solution was added (Promega Cat#G7573). The plate was covered with a dark lid and incubated for 10 min. A white sealing tape was applied to the bottom of the plate, and the plate was read in a luminescence plate reader. […] 50 μl CellTiterGlo was added per well, and the plate was read in a luminescence plate reader after 10 min. The reading was plotted vs. cell number to generate a standard curve and the equation of the curve fit. The compound-treated sample luminescence readings were converted to cell numbers using the curve-fit equation. The percent of inhibition, using untreated control as 100% growth, was then calculated. GI50 was then calculated by GraphPad Prism.

[2] = target: T1, Erk1 (Homo sapiens, UniProt P27361); assay: Protein Mass Modification Assay (intact protein MALDI, 60 min, 10-fold excess of compound); type: binding
T1 construct: purchased Millipore 14-439
Description: Protein Mass Modification Assay
Intact protein: Erk1 from Millipore (Cat. No. 14-439) was incubated for 60 min. at room temperature with a 10-fold excess of test compound to protein. 4 μL aliquots of the resulting mixture were diluted with 15 μL of 0.2% TFA prior to micro C4 ZipTipping directly onto the MALDI target using sinapinic acid as the desorption matrix (10 mg/ml in 0.1% TFA:Acetonitrile 50:50, v/v). The centroid mass of the target protein in the control sample was compared with the centroid mass of the target protein incubated with compound. A shift in the centroid mass of the treated protein compared to the untreated protein was divided by the molecular weight of the compound. This number corresponds to the percentage of modified protein after one hour incubation. Results from this assay are reported in Table A under the column “ERK1 Mass Mod (%).”

[3] = system: HT-29 cells (colorectal adenocarcinoma); assay: Inhibition of cancer cell proliferation, HT-29 (CellTiterGlo, 72 hours); type: cell-based; conditions: Homo sapiens
Method in brief: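 HT-29 cells seeded at 3000/well, then treated with 3-fold serial dilutions from a 5,000 nM two-fold solution in serum-free RPMI1640, untreated wells as control, for 72 h at 37° C. CellTiterGlo luminescence converted to cell number via a standard curve; GI50 from percent inhibition versus untreated growth.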

[4] = system: ERK1/2 phosphorylation of p90RSK in HT29 cells; assay: pRSK MSD Assay in HT29 cells; type: cell-based; conditions: Homo sapiens, HT-29, read-out: ERK1/ERK2 PRSK MSD HT29 EC50
Method in brief: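 Serum-starved HT29 cells (0.1% FBS overnight) treated with test compound for 120 min at 37° C, then lysed with protease and phosphatase inhibitors. Phospho-p90RSK quantified by MSD sandwich immunoassay: RSK capture antibody, phospho-RSK detection antibody plus Sulfo-tagged antibody, electrochemiluminescence read.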

[5] = system: HCT116 cells (colorectal carcinoma); assay: Inhibition of cancer cell proliferation, HCT116 (CellTiterGlo, 72 hours); type: cell-based; conditions: Homo sapiens, HCT-116
Description: Measurement of Inhibition of Cancer Cell Proliferation (HCT116/Colorectal Carcinoma)
as §1, with “a HCT116” for “an A375”, “colorectal carcinoma. HCT116” for “malignant melanoma. A375”, “μl” for “n1”, “RPM1640” for “DMEM”

[6] = system: ERK1/2 phosphorylation of p90RSK in A375 cells; assay: Detection of total and phosphor-RSK by MSD ELISA (A375); type: cell-based; conditions: Homo sapiens, A-375, read-out: ERK1/ERK2 PRSK A375 EC50
Method in brief: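 A375 cells serum-starved overnight in DMEM/0.1% FBS, then treated 2 h at 37° C with compound (1000× DMSO dilutions into medium). Lysates captured on RSK antibody-coated MSD plates; phospho-RSK (Ser380) and total RSK detected with SulfoTag secondary antibodies by electrochemiluminescence.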

[7] = system: ERK1/2 phosphorylation of p90RSK in HCT116 cells; assay: Detection of total and phospho-RSK by MSD ELISA (HCT116); type: cell-based; conditions: Homo sapiens, HCT-116, read-out: ERK1/ERK2 PRSK HCT116 EC50
Description: Detection of Total and Phospho-RSK by MSD ELISA (HCT116)
The protocol below describes an assay to measure the kinase activity of ERK1/2 to phosphorylate a substrate, p90RSK, in the presence or absence of a test compound.
HCT116 cells were grown in RPMI/10% FBS. Prior to the assay, 50,000 cells per well were plated in a 96 well flat bottom plate. Cells were cultured overnight in an incubator at 37° C.
Compound stocks were 10 mM in DMSO. A 1000× dilution was made in DMSO. 1 uL of the DMSO solution was transferred to 1 ml RPMI/10% FBS in a deep well plate. Media in the cell plate was discarded, and 100 uL of the compound-containing media was added. The preparation was incubated at 37° C. for 2 hrs.
Preparation of cell lysates are described below.
pRSK or total RSK MSD Assay
MSD plates: Blank MSD plates were coated with 30 uL capture antibody (BD 610226) at a final concentration of 1 ug/mL in PBS. Both pRSK and total RSK MSD assays used the same capture antibody at the same concentration. Antibody stock concentration was 250 ug/mL. Once antibody solution was added to MSD plate, the sides were tapped to be certain it was coated completely (visual inspection). It was then covered and placed at 4° C. overnight on a level surface.
Block MSD Plate: The coating antibody was removed and the plate was washed on a plate washer in MSD wash buffer. The last bit of wash solution was tapped out and 150 uL/well 3% BSA (MSD Blocker A) in MSD wash buffer was added. The preparation was placed on a shaker at room temperature for at least an hour.
Add samples: Media was removed from compound-treated cells and replaced with 55 uL/well MSD cell lysis buffer containing protease and phosphotase I & II inhibitors. The preparations was incubate on a shaker in a cold room for 30-45 min. The blocked MSD plate was washed on a plate washer, and the last bit of wash solution was tapped out. Next was added 50 uL (of the 55 uL) cell lysate in a well-well transfer. The preparation was covered and incubated on shaker at room temp for 2 hours. The lysate was then removed and washed on plate washer 3 times. The last bit of wash buffer was then tapped out and replaced with 25 uL/well detection antibody (described below).
For pRSK detection, a pRSK antibody stock of 21 ug/mL was prepared as follows: 1 ug/mL pRSK Ser380 antibody (Cell Signaling Technology, Cat. #9335)+1:750 anti-rabbit SulfoTag (from MSD, R32AB-1) in 1% BSA in MSD wash buffer.
For total RSK detection, a total RSK antibody stock of 200 ug/mL was prepared as follows: 1 ug/mL total RSK (Santa Cruz sc-231G) antibody+1:750 anti-goat SulfoTag (from MSD, R32AG-1) in 1% BSA in MSD wash buffer.
The plate was incubated for 1 hr at room temperature on a shaker, followed by three washes. The last bit of wash buffer was tapped out. Next, 150 uL/well 1×MSD Read buffer was added and the plate was analyzed by the MSD reader.

T1 sequence (P27361 whole entry): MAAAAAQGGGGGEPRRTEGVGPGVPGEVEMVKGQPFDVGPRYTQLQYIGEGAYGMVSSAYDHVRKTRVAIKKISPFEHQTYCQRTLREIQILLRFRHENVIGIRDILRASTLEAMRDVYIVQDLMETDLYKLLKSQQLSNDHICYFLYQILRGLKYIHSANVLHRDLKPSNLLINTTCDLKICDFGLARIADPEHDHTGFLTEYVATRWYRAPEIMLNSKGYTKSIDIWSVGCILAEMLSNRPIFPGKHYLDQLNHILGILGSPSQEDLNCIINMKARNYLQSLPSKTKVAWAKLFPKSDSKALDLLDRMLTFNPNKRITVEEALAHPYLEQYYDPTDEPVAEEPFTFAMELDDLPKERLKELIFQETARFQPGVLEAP

| SMILES | GI50 [1] [nM] | ERK1 Mass Mod (%) [2] | GI50 [3] [nM] | EC50 [4] [nM] | GI50 [5] [nM] | EC50 [6] [nM] | EC50 [7] [nM] |
| --- | --- | --- | --- | --- | --- | --- | --- |
| C=CC(=O)Nc1ccccc1Nc1nc(N[C@H]2CCC[C@@H](C(N)=O)C2)ncc1Cl [Compound I-120, (1R,3S)-3-((4-((2-acrylamidophenyl)amino)-5-chloropyrimidin-2-yl)amino)cyclohexanecarboxamide] | 101 to 500 | E (a mass modification of ≧70%) | < 100 | < 100 | – | – | – |
| C=CC(=O)Nc1cc(Cl)ccc1Nc1nc(Nc2cc(OC)ncc2C)ncc1Cl [Compound I-248, N-(5-chloro-2-((5-chloro-2-((2-methoxy-5-methylpyridin-4-yl)amino)pyrimidin-4-yl)amino)phenyl)acrylamide] | 501 to 999 | – | 501 to 999 | – | > 1000 | – | – |
| C=CC(=O)Nc1ccccc1Nc1nc(N[C@H]2CCC[C@@H](C(N)=O)C2)ncc1C(F)(F)F [Compound I-118, (1R,3S)-3-((4-((2-acrylamidophenyl)amino)-5-(trifluoromethyl)pyrimidin-2-yl)amino)cyclohexanecarboxamide] | 101 to 500 | E (a mass modification of ≧70%) | 101 to 500 | < 100 | – | – | – |
| C=CC(=O)Nc1cc(C)ccc1Nc1nc(Nc2cc(OC)ncn2)ncc1C(F)(F)F [Compound I-348, N-(2-((2-((6-methoxypyrimidin-4-yl)amino)-5-(trffluoromethyl)pyrimidin-4-yl)amino)-5-methylphenyl)acrylamide] | – | G (a mass modification ≦30%) | – | 101 to 500 | – | 501 to 999 | 501 to 999 |
| C=CC(=O)Nc1cc(C)ccc1Nc1nc(N[C@H]2CCCN(C(=O)CF)C2)ncc1C(F)(F)F [Compound I-43, (S)—N-(2-((2-((1-(2-Fluoroacetyl)piperidin-3-yl)amino)-5-(trifluoromethyl)pyrimidin-4-yl)amino)-5-methylphenyl)acrylamide] | < 100 | E (a mass modification of ≧70%) | – | – | – | – | – |

More lines, now with the values ahead:

| GI50 [1] [nM] | ERK1 Mass Mod (%) [2] | GI50 [3] [nM] | EC50 [4] [nM] | GI50 [5] [nM] | EC50 [6] [nM] | EC50 [7] [nM] | SMILES |
| --- | --- | --- | --- | --- | --- | --- | --- |
| – | E (a mass modification of ≧70%) | – | > 1000 | – | > 1000 | > 1000 | C=CC(=O)Nc1cc(C)ccc1Nc1nc(Nc2nc(O)ncc2Cl)ncc1C(F)(F)F [Compound I-363, N-(2-((2-((5-chloro-2-hydroxypyrimidin-4-yl)amino)-5-(trifluoromethyl)pyrimidin-4-yl)amino)-5-methylphenyl)acrylamide] |
| – | E (a mass modification of ≧70%) | – | > 1000 | – | > 1000 | > 1000 | C=CC(=O)Nc1cc(C)ccc1Nc1nc(Nc2cc(O)ncc2C)ncc1C(F)(F)F [Compound I-365, N-(2-((2-((2-hydroxy-5-methylpyridin-4-yl)amino)-5-(trifluoromethyl)pyrimidin-4-yl)amino)-5-methylphenyl)acrylamide] |
| – | E (a mass modification of ≧70%) | – | < 100 | – | 101 to 500 | 101 to 500 | C=CC(=O)Nc1cc(OCC(=O)N2CCN(c3ncccn3)CC2)ccc1Nc1nc(Nc2cc(OC)ncc2C)ncc1C(F)(F)F [Compound I-403, N-(2-((2-((2-methoxy-5-methylpyridin-4-yl)amino)-5-(trifluoromethyl)pyrimidin-4-yl)amino)-5-(2-oxo-2-(4-(pyrimidin-2-yl)piperazin-1-yl)ethoxy)phenyl)acrylamide] |
| – | G (a mass modification ≦30%) | – | – | – | > 1000 | > 1000 | COc1cc(Nc2ncc(C(F)(F)F)c(Nc3ccc(C)cc3N)n2)c(C)cn1 [Compound I-353, N^4-(2-amino-4-methylphenyl)-N^2-(2-methoxy-5-methylpyridin-4-yl)-5-(trifluoromethyl)pyrimidine-2,4-diamine] |
| – | E (a mass modification of ≧70%) | – | 501 to 999 | – | 501 to 999 | 101 to 500 | C=CC(=O)Nc1cc(C(=O)N2CCN(C(=O)CO)CC2)ccc1Nc1nc(Nc2cc(OC)ncc2C)ncc1C(F)(F)F [Compound I-402, N-(5-(4-(2-hydroxyacetyl)piperazine-1-carbonyl)-2-((2-((2-methoxy-5-methylpyridin-4-yl)amino)-5-(trifluoromethyl)pyrimidin-4-yl)amino)phenyl)acrylamide] |
